Source: publication PMC3927067 (Journal of Computer-Aided Molecular Design, 2014)
Values joined by “and” are separate entries in the source; they are usually repeats but may differ in a detail not shown here. Identical values can stand only once. Like-named read-outs stand apart in the source and are kept apart here.

Legend:
hOX2R = target: T1, hOX2R (Homo sapiens, UniProt O43614); test: Orexin 2 receptor binding assay
T1 sequence (O43614 1-444): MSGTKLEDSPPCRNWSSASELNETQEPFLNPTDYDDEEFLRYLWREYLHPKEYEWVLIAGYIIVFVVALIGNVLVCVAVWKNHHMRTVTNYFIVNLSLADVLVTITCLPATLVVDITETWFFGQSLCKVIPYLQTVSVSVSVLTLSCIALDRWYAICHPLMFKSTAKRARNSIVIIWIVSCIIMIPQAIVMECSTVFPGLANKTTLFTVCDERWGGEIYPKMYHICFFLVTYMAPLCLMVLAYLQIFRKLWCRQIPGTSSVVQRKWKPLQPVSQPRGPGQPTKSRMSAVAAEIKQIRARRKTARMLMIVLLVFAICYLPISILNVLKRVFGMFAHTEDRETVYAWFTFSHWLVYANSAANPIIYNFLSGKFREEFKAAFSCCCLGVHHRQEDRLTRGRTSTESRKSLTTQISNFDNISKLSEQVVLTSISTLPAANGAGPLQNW

hOX1R = target: T2, hOX1R (Homo sapiens, UniProt O43613); test: Orexin 1 receptor binding assay
T2 sequence (O43613 1-425): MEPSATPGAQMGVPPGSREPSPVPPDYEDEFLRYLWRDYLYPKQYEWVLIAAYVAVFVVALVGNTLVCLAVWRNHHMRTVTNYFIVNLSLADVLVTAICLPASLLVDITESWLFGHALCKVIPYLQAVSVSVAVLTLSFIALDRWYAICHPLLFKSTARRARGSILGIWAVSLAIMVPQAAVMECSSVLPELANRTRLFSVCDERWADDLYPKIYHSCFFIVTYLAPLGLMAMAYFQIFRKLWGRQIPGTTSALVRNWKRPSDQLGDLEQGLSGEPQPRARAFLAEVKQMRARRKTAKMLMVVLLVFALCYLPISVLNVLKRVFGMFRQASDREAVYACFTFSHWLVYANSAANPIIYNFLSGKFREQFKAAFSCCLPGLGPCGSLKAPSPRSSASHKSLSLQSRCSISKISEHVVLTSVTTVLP

[1] = NMR solution conformation (NOE); format: physicochemical; details: CD3OD at −40 °C
From the text: Although the molecular and quantum mechanical methods were in agreement with one another, we sought additional experimental methods to either support or refute our initial computational findings. We first determined the unbound, small-molecule crystal structure. The RMSD between the computationally derived conformation depicted in Fig. 1 and the X-ray structure was 0.75 Å (non-hydrogen atoms). Additionally, no differences between the geometries of the nitrogen atoms of the seven-membered ring nor the amide bond were observed between the theoretically and experimentally derived conformations. Even though there was no computed difference between the conformations (Table 1) when implicit solvent was invoked, we sought to experimentally confirm that the solution state conformation was consistent with the aforementioned theoretical and crystal structure experiments. There was again excellent agreement from NMR spectroscopy applied to compound 1, with NOE evidence for the F2F interaction in the major rotamer. In fact, two F2F rotamers in the ensemble accounted for 82 % of the total solution conformation (CD3OD at −40 °C), each with a motif similar to that found by computational analysis and X-ray structure.

[2] = cited from earlier work
[3] = design: method as in PMID 20565075; details: cited from earlier work
[4] = Brain/plasma ratio, iv infusion study; details: rat
preclinical species = test: In vivo sleep promotion
[5] = mean of replicates, read-out: OX2R Ki
[6] = supplement, individual replicates, Ki and nM taken from Table 3, read-out: OX2R individual replicate
[7] = mean of replicates, read-out: OX1R Ki
[8] = supplement, individual replicates, Ki and nM taken from Table 3, read-out: OX1R individual replicate
[9] = supplement, unlabelled mean below the replicates, Ki and nM taken from b8/Table 3, read-out: OX1R mean of replicates
[10] = supplement, unlabelled mean below the replicates, Ki and nM taken from b8/Table 3, read-out: OX2R mean of replicates

SMILES: Cc1ccc(-n2nccn2)c(C(=O)N2CCCN(c3ncc4ccccc4n3)CC2)c1 [Compound 1]
- Ki (hOX2R; [5]): 0.8 nM
- Ki (hOX2R; [6]): 0.773 nM and 0.86 nM and 1.01 nM and 0.775 nM and 0.811 nM and 0.65 nM and 0.64 nM and 0.61 nM and 0.57 nM and 0.606 nM and 0.41 nM and 0.72 nM and 0.754 nM and 0.866 nM and 0.905 nM and 0.731 nM and 1.31 nM and 0.954 nM and 0.71 nM
- Ki (hOX1R; [7]): 1.2 nM
- Ki (hOX1R; [8]): 2.2 nM and 0.71 nM and 0.58 nM and 1.3 nM and 0.94 nM and 0.62 nM and 0.54 nM and 2.4 nM and 1.4 nM
- Ki (hOX1R; [9]): 1.2 nM
- share of two F2F rotamers in total solution conformation [1]: 82%

SMILES: O=C(c1cc(Cl)ccc1-n1nccn1)N1CC2CC(C1)N(c1ncc3cc(F)ccc3n1)C2 (stereo not drawn) [Compound 4]
- Ki (hOX2R; [5]): 0.6 nM
- Ki (hOX2R; [6]): 0.66 nM and 0.57 nM
- Ki (hOX2R; [10]): 0.615 nM
- Ki (hOX1R; [7]): 0.4 nM
- Ki (hOX1R; [8]): 0.43 nM and 0.42 nM
- Ki (hOX1R; [9]): 0.425 nM

SMILES: Cc1ccc(-n2nccn2)c(C(=O)N2CC3CC2CCN3c2ncc3cc(F)ccc3n2)c1 (stereo not drawn) [Compound 5]
- Ki (hOX2R; [5]): 2740 nM
- Ki (hOX2R; [6]): 2800 nM and 2280 nM and 3150 nM
- Ki (hOX2R; [10]): 2740 nM
- times less active than compound 4 (hOX1R; binding, relative to compound 4, receptor not specified): > 1,000 times
- Ki (hOX1R; [7]): > 1700 nM

SMILES: C[C@@H]1CCN(c2ncc3cc(F)ccc3n2)CCN1C(=O)c1cc(Cl)ccc1-n1nccn1 [Compound 6]
- Ki (hOX2R; [5]): 0.2 nM
- Ki (hOX2R; [6]): 0.19 nM and 0.11 nM
- Ki (hOX2R; [10]): 0.15 nM
- Ki (hOX1R; [7]): 0.6 nM
- Ki (hOX1R; [8]): 0.9 nM and 0.31 nM
- Ki (hOX1R; [9]): 0.605 nM
- metabolic liability [2]: metabolic liability
- in vivo activity [3]: excellent in vivo activity

SMILES: Cc1ccc(-n2nccn2)c(C(=O)N2CCN(c3nc4cc(Cl)ccc4o3)CC[C@H]2C)c1 [Compound 7, Suvorexant]
- Kp ([4]; brain and plasma, iv): 0.6 to 1.2
- CNS penetration ([4]; iv infusion study): CNS penetrant
- sleep promotion in vivo (preclinical species): promote sleep in preclinical species in a dose dependent fashion
- metabolic issues ([2]; benzoxazole replacing quinazoline ring): devoid of the metabolic issues
- toxicology profile (Toxicology profile): favorable toxicology profile
